The subject of the test is Nalm6-luciferase cells. In words: In vivo efficacy of dexamethasone-treated post-thaw CD19-CAR iT cells, systemic Nalm6-luciferase model. The arrangement: species or system NSG female mice. To be noted: p>0.1. The source says: Tumor progression was monitored at days 7, 14 and 20 post tumor injection by bioluminescent imaging. CAR-iT cells treated with dexamethasone (FIG. 8B) were compared with control cells without dexamethasone treatment (FIG. 8A) in cultures for iv/iv in vivo efficacy.

One compound from US20230016034A1, “ENHANCEMENT OF iPSC-DERIVED EFFECTOR IMMUNE CELL USING SMALL COMPOUNDS” (Fate Therapeutics, Inc., priority 2019, published 2023) can be followed below.

Some results are limits rather than exact numbers.

Turning to `C[C@@H]1C[C@H]2[C@@H]3CCC4=CC(=O)C=C[C@]4(C)[C@@]3(F)[C@@H](O)C[C@]2(C)[C@@]1(O)C(=O)CO` [dexamethasone], the Days of survival was above 80 days.
